Here are results for ten molecules from patent US20210368850A1, “VAPORIZABLE FORMULATION” (NICOVENTURES TRADING LIMITED, priority 2018, published 2021).

Each structure is given as a SMILES string.

The conditions of data set [1]: cited from earlier work; for Vapor pressure (mmHg) @ 25° C.: approximate, from the literature.
Data set [2] can be described thus: Thermogravimetric analysis (TGA) of mass loss on heating. The class given is physicochemical. Particulars: 30° C. to 600° C. at 5° C./min; for Tpeak of mass loss (° C.) Air (rep 1) / Tpeak of mass loss (° C.) Air (rep 2): TGA in air; for Tpeak of mass loss (° C.) Nitrogen (rep 1) / Tpeak of mass loss (° C.) Nitrogen (rep 2): TGA in nitrogen. As for the experimental part:
Prior to panel testing, the cooling agents were subjected to thermogravimetric analysis (TGA) to understand their behavior as they are heated. As is known in the art, TGA is an analytical method which can monitor the mass loss of a sample as it is heated to temperatures of up to 1000° C. and higher.
All measurements were carried out on a Perkin Elmer STA6000 TGA thermogravimetric analyzer. For solid samples, a spatula was used to transfer 5-20 mg of material into the crucible of the analyzer. Oils were introduced to the instrument by transferring 5-20 mg using a Pasteur pipette onto a small portion of Cambridge filter pad which was placed in the crucible. All samples were heated from 30° C. to 600° C. at a constant rate of 5° C./min. This was carried out for each compound twice in air and twice in nitrogen. For a small number of samples, the run was stopped at 500-600° C. when full mass loss had been observed. For comparative purposes, menthol was also analyzed.
The onset temperature of mass loss for each compound was determined by visual inspection of the TGA traces on the computer software and the results are summarized in Table 2.

For data set [3] the following is noted: from the literature, cited from earlier work; for Boiling point (° C.) @ 760 mmHg unless stated: @ 760 mmHg (atmospheric pressure), approximate.
Data set [4] concerns volunteers. Description: Example 1 observational testing: perceived cooling intensity, Vype eTank Pro e-cigarette. The format is in vivo. To be noted: 10 volunteers. As for the experimental part:
10 volunteers were asked to use each cooling agent sample in a Vype eTank Pro (an electronic cigarette device). All cooling agents were used at a concentration of 0.18% except for menthol which in one sample was used at the current commercial concentration of 1.235%. Each of the menthol samples were tested for comparative purposes.
(§1) Each volunteer was asked to assess the cooling intensity on an objective basis (i.e. not considering personal preference) and a subjective basis. The objective assessment required the volunteer to rate the overall perceived cooling intensity from 0 to 10, where 0 was no cooling perceivable and 10 was very strong cooling sensation, and to place the cooling sensation, e.g. in the mouth, throat etc. The subjective assessment required the cooling intensity to be ranked as (1) much too low, (2) slightly too low, (3) just right, (4) slightly too high or (5) much too high.

Data set [5] concerns volunteers. Put plainly: Example 2: cooling intensity of WS-3 e-liquid samples, eTank Pro e-cigarette. The format is in vivo. Particulars: minimum of 4 volunteers, scale 0-10.
From the text: A minimum of 4 volunteers were asked to test each of the following e-liquid samples in an eTank Pro (an electronic cigarette device): • WS-3 at 2.5 wt % in glycerol/propylene glycol; • WS-3 at 5 wt % in glycerol/propylene glycol; and • WS-3 at 10 wt % in glycerol/propylene glycol.
as §1, with “basis in the same manner as Example 1.” for “basis.”

Where [6] appears, read: 0.18% in e-liquid, 0 = no cooling perceivable, 10 = very strong cooling sensation.

Consider `CC(C)[C@@H]1CC[C@@H](C)CC12OCC(CO)O2` (single isomer, unassigned; (-)) [Frescolat ® MGA, (−)-menthone 1,2-glycerol ketal], for which the “Vapor pressure (mmHg) @ 25° C.” value in data set [1] was 2.15E−5 mmHg. In data set [2], the “Tpeak of mass loss (° C.) Air (rep 1)” value came out at 93 °C, the “Tpeak of mass loss (° C.) Air (rep 2)” value stood at 85 °C, the “Tpeak of mass loss (° C.) Nitrogen (rep 1)” value is 102 °C and the “Tpeak of mass loss (° C.) Nitrogen (rep 2)” value came to 94 °C. Besides, the “Boiling point (° C.) @ 760 mmHg unless stated” value in data set [3] was 138-142 °C. In data set [4] (setting [6]), the “Average Cooling Intensity (0-10)” value was found to be 1.
As to `CCNC(=O)[C@H]1C[C@@H](C)CC[C@@H]1C(C)C` (stereo in doubt) [WS-3, (1S,2R,5S)-N-ethyl-5-methyl-2-(propan-2-yl)cyclohexanecarboxamide], the “Vapor pressure (mmHg) @ 25° C.” value in data set [1] is 8.50E−5 mmHg. For the same molecule, in data set [2], the “Tpeak of mass loss (° C.) Air (rep 1)” value was found to be 127 °C, the “Tpeak of mass loss (° C.) Air (rep 2)” value came to 132 °C, the “Tpeak of mass loss (° C.) Nitrogen (rep 1)” value was 132 °C and the “Tpeak of mass loss (° C.) Nitrogen (rep 2)” value is 128 °C. For the same molecule, the “Boiling point (° C.) @ 760 mmHg unless stated” value in data set [3] is 340.55 °C. The “Average Cooling Intensity (0-10)” value in data set [4] (setting [6]) is 3.045. Further, the “Average Cooling Intensity (0-10)” value in data set [5] (2.5 wt % in glycerol/propylene glycol) came out at 6. In addition, the “Average Cooling Intensity (0-10)” value in data set [5] (5 wt % in glycerol/propylene glycol) turned out to be 8.5. The “Average Cooling Intensity (0-10)” value in data set [5] (10 wt % in glycerol/propylene glycol) amounted to 9.8.
Turning to `CC(C)[C@@H]1CC[C@@H](C)C[C@H]1OCC(O)CO` (stereo partly drawn) [Coolact ® 10, 3-((−)-menthoxy)propane-1,2-diol], in data set [1], the “Vapor pressure (mmHg) @ 25° C.” value is 9.88E−7 mmHg. In data set [2], the “Tpeak of mass loss (° C.) Air (rep 1)” value is 119 °C, the “Tpeak of mass loss (° C.) Air (rep 2)” value amounted to 112 °C, the “Tpeak of mass loss (° C.) Nitrogen (rep 1)” value was determined as 115 °C and the “Tpeak of mass loss (° C.) Nitrogen (rep 2)” value was 119 °C. Moreover, in data set [3], the “Boiling point (° C.) @ 760 mmHg unless stated” value was 362.8 ± 22.0 °C. Moreover, the “Average Cooling Intensity (0-10)” value in data set [4] (setting [6]) worked out at 0.75.
For `CC(C)[C@@H]1CC[C@@H](C)C[C@H]1C(=O)NCCc1ccccn1` [Evercool ® 190, (1R,2S,5R)-N-(2-(pyridin-2-yl)ethyl)menthylcarboxamide], the “Vapor pressure (mmHg) @ 25° C.” value in data set [1] is given as 1.06E−8 mmHg. In addition, in data set [2], the “Tpeak of mass loss (° C.) Air (rep 1)” value worked out at 161 °C, the “Tpeak of mass loss (° C.) Air (rep 2)” value is 164 °C, the “Tpeak of mass loss (° C.) Nitrogen (rep 1)” value was 169 °C and the “Tpeak of mass loss (° C.) Nitrogen (rep 2)” value came to 174 °C. Further, the “Boiling point (° C.) @ 760 mmHg unless stated” value in data set [3] was 461.6 ± 24.0 °C. Further, the “Average Cooling Intensity (0-10)” value in data set [4] (setting [6]) is given as 7.1.
Consider `CC(O)C(=O)O[C@@H]1C[C@H](C)CC[C@H]1C(C)C` (stereo partly drawn) [Frescolat ® ML, (−)-menthyl lactate], for which the “Vapor pressure (mmHg) @ 25° C.” value in data set [1] is reported as 8.58E−5 mmHg. Besides, in data set [2], the “Tpeak of mass loss (° C.) Air (rep 1)” value stood at 86 °C, the “Tpeak of mass loss (° C.) Air (rep 2)” value worked out at 88 °C, the “Tpeak of mass loss (° C.) Nitrogen (rep 1)” value is 86 °C and the “Tpeak of mass loss (° C.) Nitrogen (rep 2)” value was determined as 91 °C. Besides, in data set [3], the “Boiling point (° C.) @ 760 mmHg unless stated” value is 304.0 ± 15.0 °C. The “Average Cooling Intensity (0-10)” value in data set [4] (setting [6]) is 2.
Consider `CC1CCC(C(C)C)C(O)C1` (stereo not shown) [Menthol, menthol, reference compound], for which, in data set [1] (25° C.), the Vapor pressure entry is “approximately 1.02 Pa”. Also, in data set [2], the “Tpeak of mass loss (° C.) Air (rep 1)” value was 53 °C, the “Tpeak of mass loss (° C.) Air (rep 2)” value was found to be 55 °C, the “Tpeak of mass loss (° C.) Nitrogen (rep 1)” value amounted to 52 °C and the “Tpeak of mass loss (° C.) Nitrogen (rep 2)” value came to 55 °C. For the same molecule, in data set [3], the “Boiling point (° C.) @ 760 mmHg unless stated” value is 212 °C. In data set [4] (setting [6]), the “Average Cooling Intensity (0-10)” value was determined as 2.1. In addition, the “Average Cooling Intensity (0-10)” value in data set [4] (1.235% (current commercial concentration) in e-liquid, scale 0-10) is on record as 8.
Take `CC(C)[C@@H]1CC[C@@H](C)C[C@H]1OC(=O)CCC(=O)O` [Monomenthyl succinate, (−)-menthyl succinate]: the “Vapor pressure (mmHg) @ 25° C.” value in data set [1] is reported as 1.23E−6 mmHg. In data set [2], the “Tpeak of mass loss (° C.) Air (rep 1)” value came out at 144 °C, the “Tpeak of mass loss (° C.) Air (rep 2)” value came out at 148 °C, the “Tpeak of mass loss (° C.) Nitrogen (rep 1)” value amounted to 151 °C and the “Tpeak of mass loss (° C.) Nitrogen (rep 2)” value stood at 151 °C. For the same molecule, the “Boiling point (° C.) @ 760 mmHg unless stated” value in data set [3] is 374.35 °C.
Take `CCOC(=O)CNC(=O)[C@@H]1C[C@H](C)CC[C@H]1C(C)C` [WS-5, ethyl-2-[[(1R,2S,5R)-5-methyl-2-propan-2-ylcyclohexanecarbonyl]amino] acetate]: in data set [2], the “Tpeak of mass loss (° C.) Air (rep 1)” value worked out at 149 °C, the “Tpeak of mass loss (° C.) Air (rep 2)” value stood at 151 °C, the “Tpeak of mass loss (° C.) Nitrogen (rep 1)” value worked out at 154 °C and the “Tpeak of mass loss (° C.) Nitrogen (rep 2)” value stood at 158 °C. Also, the “Boiling point (° C.)” value in data set [3] (@ 2.00 mmHg) is 151.00 (@ 2.00 mmHg) ° C. The “Average Cooling Intensity (0-10)” value in data set [4] (setting [6]) is 2.5454.
As for `COc1ccc(NC(=O)[C@@H]2C[C@H](C)CC[C@H]2C(C)C)cc1` [WS-12], in data set [1], the “Vapor pressure (mmHg) @ 25° C.” value is 3.25E−8 mmHg. In data set [2], the “Tpeak of mass loss (° C.) Air (rep 1)” value was 202 °C, the “Tpeak of mass loss (° C.) Air (rep 2)” value was determined as 203 °C, the “Tpeak of mass loss (° C.) Nitrogen (rep 1)” value was 199 °C and the “Tpeak of mass loss (° C.) Nitrogen (rep 2)” value was found to be 197 °C. Moreover, the “Boiling point (° C.) @ 760 mmHg unless stated” value in data set [3] is 447.8 ± 28.0 °C.
With `CNC(=O)C(C)(C(C)C)C(C)C` [WS-23, N,2,3-trimethyl-2-propan-2-ylbutanamide], in data set [2], the “Tpeak of mass loss (° C.) Air (rep 1)” value amounted to 88 °C, the “Tpeak of mass loss (° C.) Air (rep 2)” value is 88 °C, the “Tpeak of mass loss (° C.) Nitrogen (rep 1)” value worked out at 90 °C and the “Tpeak of mass loss (° C.) Nitrogen (rep 2)” value is 86 °C. Also, in data set [3], the “Boiling point (° C.) @ 760 mmHg unless stated” value is 233.00-234.00 °C. Besides, in data set [4] (setting [6]), the “Average Cooling Intensity (0-10)” value came out at 2.1818.
